Test results as given in ChEMBL document CHEMBL5226287, “Small organic molecules targeting the energy metabolism of Mycobacterium tuberculosis” (Eur J Med Chem, 2021).
Converted amounts (≈) assume the structure as drawn. Starred links: 1 amine or outer side, 2 acyl side, 3 side chain; linkers in the order of their positions; H or OH if unused. Non-standard residues stand in square brackets, D forms with d. Residues, ends and D or L forms follow the SMILES beside them. ξ: configuration not given here. *: point of attachment. X1 = CCC(=O)C[C@@H](O)C[C@@H](C)C[C@H](N[*:1])C(=O)[*:2]; Alaψ(CH2NMeCH2CH2OH) = C[C@@H](CN(C)CCO)N*; Decanoyl(2R-Me) = CCCCCCCC[C@@H](C)C(=O)*; Ile(3ξ) = CCC(C)[C@H](N)C(=O)O; ξβ3hP = O=C(O)CC1CCCN1; Aib = CC(C)(N)C(=O)O

Assays:
Assay type in all cases: functional
[1] = system: Mycobacterium tuberculosis variant bovis; test: Antimycobacterial activity against Mycobacterium bovis BCG ATCC 35737 at 50 uM by Luminescence assay
[2] = system: Mycobacterium tuberculosis variant bovis; test: Antibacterial activity against Mycobacterium bovis BCG assessed as inhibition of bacterial growth by microdilution based analysis
[3] = system: Mycobacterium tuberculosis variant bovis; test: Antimycobacterial activity against Mycobacterium bovis BCG assessed as reduction in bacterial growth incubated for 48 hrs by HT-SPOTi assay
[4] = system: Mycobacterium tuberculosis variant bovis; test: Antibacterial activity against Mycobacterium bovis BCG assessed as complete inhibition of bacterial growth by Alamar Blue/Resazurin

Cc1ccc(C(=O)N2CCOCC2)cc1Nc1nccn1-c1cc(NC2CC2)ncn1
MIC [1]: 0.036 µM (≈ 0.0151 µg/mL)

Cc1ccc2nc(C)c(C(=O)NCc3ccc(C(F)(F)F)cc3)n2c1
MIC [2]: 0.5 µM (≈ 0.174 µg/mL)

CCCCCCCC[C@@H](C)C(=O)N1CCCC1CC(=O)N[C@@H](C[C@H](C)C[C@H](O)CC(=O)CC)C(=O)NC(C)(C)C(=O)NC(C)(C)C(=O)N[C@H](C(=O)N[C@H](C(=O)NC(C)(C)C(=O)NC(C)(C)C(=O)N[C@@H](C)CN(C)CCO)C(C)C)C(C)CC (stereo partly drawn) ({Decanoyl(2R-Me)}-[ξβ3hP][X1][Aib][Aib][Ile(3ξ)]V[Aib][Aib]-{Alaψ(CH2NMeCH2CH2OH)})
MIC50 [3]: 33 µM (≈ 38.9 µg/mL)

CCc1nc2ccc(Cl)cn2c1C(=O)NCc1ccc(N2CCC(c3ccc(OC(F)(F)F)cc3)CC2)cc1 [TELACEBEC]
MIC90 [4]: 0.125 µg/mL (≈ 0.224 µM)
